pIC50: −log10 of the molar value. Where two headings read alike, the source gives them in different places.
Test system: Pre-adipocytes and 3T3-L1 cell
Experiment: Inhibitory effect on adipocyte differentiation (Oil-red O staining)
Assay type: cell-based
Details: 3T3-L1, Oil-red O staining; for pIC50: day 7, IC50 determined using BioDataFit 1.02, read-out: Inhibitory Activities of Isolated Compound on Adipocyte Differentiation(IC50)
Description: Oil-red O was dissolved in 100% isopropanol, and stirred for about 16 hrs to prepare a 0.3% Oil-red O staining solution. Distilled water was added to the solution at a ratio of 0.3% Oil-red O:distilled water=6:4 (v/v), and mixed with each other. The solution was filtered using 3M paper once, and filtered again using a 0.2 μm syringe filter.
Pre-adipocytes and 3T3-L1 cell (American Tissue Culture. Collection, ATCC) were maintained in DMEM (Dulbecco's Modified Eagle Medium, Gibco-BRL, Grand Island, N.Y., USA) supplemented with 10% bovine calf serum. 4×10^4 of cells were suspended in 0.5 ml and seeded in each well of 24-well plate. The cells were grown to confluence for 48 hrs in the same medium and the medium was replaced with DMEM containing insulin (5 μg/mL), 10 μM rosiglitazone, 1 μM dexamethasone, and 10% fetal bovine serum (FBS) to differentiate adipocytes. […] As a control group, the cells were treated with Resveratrol (Sigma-Aldrich, 3,4′,5-Trihydroxy-trans-stilbene, 5-[(1E)-2-(4-Hydroxyphenyl)ethenyl]-1,3-benzenediol), which is known to inhibit the adipocyte differentiation and prevent diabetes, dissolved in DMSO at the same concentration. The cells were then replaced with 10% FBS/DMEM supplemented with 5 μg/mL insulin after 48 hrs, and also re-treated with each compound. After 48 hrs, the medium was replaced with fresh 10% FBS/DMEM. Day 7 after induction of adipocyte differentiation, the differentiated adipocytes were examined by Oil-red O staining. After removing the culture medium, the cells were gently washed with PBS once, and fixed in 10% formalin at room temperature for 1 hr. […] To wash off the staining solution, the cells were washed with distilled water, and dried (uncapped). After image scanning, the stained cells were treated with 100% isopropanol for 10 min to wash out the staining solution. The absorbance at 500 nm was measured to compare the Oil-red O staining between the compound-treated groups and the control group.

Molecule | inhibitory effects on adipocyte differentiation (in words) | pIC50 (Mus musculus, 168 h) | pIC50
COc1ccc(CCCc2ccc(O)cc2)c(O)c1 [Broussonin A] | showed inhibitory effects on adipocyte differentiation |  | 
Cc1c(O)cc2c(c1O)C(=O)/C(=C/c1ccc(O)cc1)CO2 [Compound 1, (E)-5,7-Dihydroxy-3-(4′-hydroxybenzylidene)-6-methylchroman-4-one] |  | 3.47 | 
O=C(C#Cc1ccc(O)cc1)c1ccc(O)cc1 [Compound 3, 1,3-bis(4-hydroxyphenyl)prop-2-yn-1-one] | excellent inhibitory effects on adipocyte differentiation even at lower concentration than the control group Resveratrol | 5.28 | 
C=C[C@H](/C=C\c1ccc(O)cc1)c1ccc(O)cc1 [Compound 5, (−)-Nyasol] |  | 3.97 | 
C=CC(CC(=O)c1ccc(O)cc1)c1ccc(O)cc1 (stereo not drawn) [Compound 7, 1,3-bis-di-p-hydroxyphenyl-4-penten-1-one] |  |  | 3.49
O=C(/C=C/c1ccc(O)cc1)c1ccc(O)cc1O [Compound 8, 2′,4′,4-Trihydroxychalcone] | showed inhibitory effects on adipocyte differentiation | 4.02 | 
Oc1ccc(CC2COc3cc(O)ccc3C2)cc1 (stereo not drawn) [Compound 9, 7,4′-Dihydroxyhomoisoflavane] |  |  | < 3.30
COc1cc(O)ccc1C(=O)/C=C/c1ccc(O)cc1 [Compound 10, 2′-O-Methylisoliquiritigenin] | showed inhibitory effects on adipocyte differentiation |  | 4.38
COc1cc(O)cc2c1C(=O)CC(c1ccc(O)cc1)O2 (stereo not drawn) [Compound 12, 4′,7-Dihydroxy-5-methoxyflavanone] |  | 3.59 | 
COc1cc(O)cc(O)c1C(=O)CCc1ccc(O)cc1 [Compound 13, 2′-O-methylphloretin] |  |  | < 3.30
O=C(/C=C/c1ccc(O)cc1)c1ccc(O)cc1 [Compound 14, 4,4′-Dihydroxychalcon] |  | < 3.30 | 
Oc1ccc(/C=C/c2cc(O)cc(O)c2)cc1 [Resveratrol, 3,4′,5-Trihydroxy-trans-stilbene, reference compound] |  | 4.50 | 
(−)-4′-O-Methylnyasol [Compound 4] | showed inhibitory effects on adipocyte differentiation |  | 4.34
Broussonin A [Compound 6] |  |  | 4.13

From patent US8431166B2, “Composition comprising the extract of Anemarrhena asphodeloides Bunge or the compounds isolated from the same for preventing and treating lipid metabolism disorder” (EWHA University-Industry Collaboration Foundation, priority 2009, dated 2013)
